Reference: patent US20230165865A1, “HETEROARYLDIHYDROPYRIMIDINE DERIVATIVES AND METHODS OF TREATING HEPATITIS B INFECTIONS” (Janssen Pharmaceutica NV, priority 2018, published 2023)
Read-outs that look alike come from different tables or passages of the source.

Key:
HBV = experiment: Anti-viral assay in HepG2.2.15 cells: anti-HBV activity, HBV DNA in culture medium by qPCR; format: cell-based; settings: HepG2.2.15 cells, 6 days treatment, HBV DNA by qPCR; read-out: EC50
Method in brief: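 Cells in 2% FBS medium treated 6 days, compound and medium refreshed at day 3; 8-point 1:3 dilutions in triplicate, top 10 or 1 uM (antiviral) and 100 uM (cytotoxicity). Extracellular viral DNA quantified by qPCR, giving EC50 and CC50.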

HepG2.2.15 cells = experiment: Cytotoxicity determination in HepG2.2.15 cells (CCK-8 assay); format: cell-based; settings: 6 days treatment, CCK-8, highest concentration 100 uM
Method in brief: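 HepG2.2.15 cells (5,000/well, 2% FBS medium) were treated for 6 days, with medium and compound refreshed at day 3. Dosing was an 8-point 1:3 series from 100 uM, in triplicate. Viability was measured by CCK-8 after 2.5 h at 37 °C (A450, 630 nm reference), and CC50 was calculated.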

[1] = Metabolic stability of test compound in human hepatocyte cell; format: in vitro ADME; settings: cryopreserved human hepatocytes (suspension), human hepatocytes; for half-life at 1 uM: 0-120 min, read-out: T½; for CLint scaled at 1 uM: scale-up intrinsic clearance, scaling factor 2544.3, read-out: Clint (liver)
Method: (§1) • 1. The cryopreserved human hepatocytes cells were thawed in 37° C. water bath and diluted with pre-warmed incubation medium to a working cell density of 1×10^6 viable cells/mL. • 2. The 198 μL pre-warmed hepatocyte suspensions were spiked with 2 μL of 100 μM compound or reference compound(Verapamil) at a final concentration of 1.0 μM in a 96-well plate. The plate was incubated at 37° C., 900 rpm. All incubations will be performed in singlet. • 3. 25 μL aliquots of well contents were collected at time points of 0, 15, 30, 60, 90 and 120 minutes. The reactions were stopped by the addition of 6-fold volumes of cold acetonitrile with internal standards. • 4. After centrifugation for 25 minutes at 3,220 g. Aliquot of 100 μL of the supernatant was mixed with 100 μL of ultra-pure H2O and then used for LC-MS/MS analysis.
(§2) All calculations were carried out using Microsoft Excel. Peak areas were determined from extracted ion chromatograms. Determine the in vitro half-life (t1/2) of parent compound by regression analysis of the percent parent disappearance vs. time curve.
(§3) The in vitro half-life (in vitro t1/2) is determined from the slope value k:
(§4) Conversion of the in vitro t1/2(in min) into the in vitro intrinsic clearance (in vitro CLint, in μL/min/10^6 cells) is done using the following equation:
(§5) V=incubation volume (0.2 mL);
(§6) N=number of hepatocytes per well (0.2×10^6 cells).
(§7) Conversion of the in vitro t1/2(in min) into the scale-up intrinsic clearance (CLint(liver), in mL/min/kg) was done using the following equation:
(§8) CLint(liver)=kV/N×scaling factor

human hepatocytes = experiment: as above; format: in vitro ADME; settings: comparing with reference 1 and reference 2
Method: as §1, §2, §3, §4, §5, §6, §7, §8

[2] = Pharmacokinetic study after intravenous and oral administration in male SD rats; format: in vivo; settings: for clearance / Cmax: male, SD; for clearance / Cmax / IV AUCinf/Dose / PO AUCinf/Dose / clearance, in words / dose-normalized AUC (AUCinf/Dose), in words: rat plasma; for clearance / IV AUCinf/Dose: IV, nominal 2 mg/kg; for clearance: read-out: IV Cl; for Cmax / PO AUCinf/Dose: PO; for Cmax: nominal 5 mg/kg; for clearance, in words / dose-normalized AUC (AUCinf/Dose), in words / bioavailability (F (%)), in words: comparing with reference 2; for F / bioavailability (F (%)), in words: rat; for F: PO vs IV
Method: Male SD rats with a weight range of 250-300 g (Si Bei Fu Laboratory Animal Technology Co. Ltd, China) were used. Animals were fasted overnight and free access to food 4 hours after dosing.
(§9) Test compound (correction factor: 1.00) was dissolved in a 20% hydroxypropyl-β-cyclodextrin (HP-β-CD) at a final concentration of 1 mg/ml for the intravenous (IV) formulation and at final concentrations of 0.5 mg/ml for the oral (PO) formulation.
The intravenous formulation was dosed at 2 ml/kg to obtain a dose of 2 mg/kg. The oral formulations were dosed at 10 ml/kg to obtain final doses of 5 mg/kg.
Blood samples were taken at 5, 15 and 30 min, 1, 2, 4, 8 and 24 h after intravenous dose administration. Blood samples were taken at 15 and 30 min, 1, 2, 4, 8, 12 and 24 h after oral dose administration.
(§10) Approximately 0.20 mL blood will be collected into BD blood collection tubes containing Sodium Fluoride (NaF), Potassium Oxalate (KoX) and K3-EDTA at each time point. Samples were placed immediately on melting ice and plasma was obtained following centrifugation at 4° C. for 5 minutes at approximately 4000×g. Plasma samples were adjusted to pH 3-4 by phosphoric acid and stored at −75±15° C. prior to analysis. The whole process was completed within 1 hour.
Plasma samples were analyzed using LC-MS/MS methods. The lower limit of quantification (LLOQ) for plasma was 1.0 ng/ml.
A non-compartmental analysis using the “Linear up log down” rule was used for all data. A limited pharmacokinetic analysis was performed using Phoenix™ Professional (Version 6.1). Results: See table 10 below for plasma PK results.

[3] = Pharmacokinetic and tissue distribution study via intravenous and oral administration in male C57BL/6 mice; format: in vivo; settings: for Kp: liver and plasma, po
Method: Male C57BL/6 mice with a weight range of 20-25 g (Hua Fu Kang, China) were used. Animals were fasted overnight and free access to food 4 hours after dosing.
as §9, with “formulation. The intravenous formulation was dosed at 2 ml/kg to obtain a dose of 2 mg/kg. The oral formulations were dosed at 10 ml/kg to obtain final doses of 5 mg/kg.” for “formulation.”
Blood samples were taken at 7 and 20 min, 1, 2, 4, 8 and 24 h after intravenous dose administration. Blood and liver samples were taken at 30 min, 1, 2, 4, 8, 12 and 24 h after oral dose administration.
as §10, with “0.020” for “0.20”, “containing” for “containing Sodium Fluoride (NaF), Potassium Oxalate (KoX) and”
Liver samples were collected at adopted time point, and the vial containing the tissues sample was snap-frozen in liquid nitrogen right away and kept at −75±15° C. prior to analysis. All liver samples were weighed and homogenized with phosphoric acid solution (pH to 3-4) by liver weight (g) to phosphoric acid solution volume (mL) ratio 1:4 before analysis.
Plasma and liver samples were analyzed using LC-MS/MS methods. The lower limit of quantification (LLOQ) for plasma was 1.0 ng/ml and for liver was 2.5 ng/g. A non-compartmental analysis using the “Linear up log down” rule was used for all data. A limited pharmacokinetic analysis was performed using Phoenix™ Professional (Version 6.1).

With `COC(=O)C1=C(CN2CCN3C(=S)N(CC(C)(C)C(=O)O)CC3C2)NC(c2nccs2)=NC1c1ccc(F)cc1Cl` (single isomer, unassigned) [Compound 4B, 3-(7-((6-(2-chloro-4-fluorophenyl)-5-(methoxycarbonyl)-2-(thiazol-2-yl)-3,6-dihydropyrimidin-4-yl)methyl)-3-thioxohexahydroimidazo[1,5-a]pyrazin-2(3H)-yl)-2,2-dimethylpropanoic acid] as the compound, how does the EC50 (HBV) read?
Its EC50 is 0.0019 µM.

What about the CC50 (HepG2.2.15 cells) of the same compound?
Its CC50 is 23.1 µM.

What about the half-life at 1 uM [1] of the same compound?
The half-life at 1 uM was > 4.82 h.

What about the CLint scaled at 1 uM [1] of the same compound?
Its CLint scaled at 1 uM is < 6.1 mL/min/kg.

What about the “metabolic stability in human hepatocyte cells, in words” value (human hepatocytes) of the same compound?
Its value is “improved metabolic stability”.

What about the clearance [2] of the same compound?
Its clearance is 28.8 mL/min/kg.

What about the Cmax [2] of the same compound?
The Cmax was 962 ng/mL.

And the “IV AUCinf/Dose” value [2]?
Its value is 594.3 ng·kg·h/mg/mL.

And the “PO AUCinf/Dose” value [2]?
Its value is 336.8 ng·kg·h/mg/mL.

And the “clearance, in words” value [2]?
Its value is “far slower clearance”.

What about the “dose-normalized AUC (AUCinf/Dose), in words” value [2] of the same compound?
Its value is “over two-folds higher”.

And the F [2]?
Its F is 56.5%.

And the “bioavailability (F (%)), in words” value [2]?
The value was “increased (or equal) bioavailability”.

With `CCOC(=O)C1=C(CN2CCN3C(=S)N(CC(C)(C)C(=O)O)CC3C2)NC(c2nccs2)=NC1c1cccc(F)c1Cl` (single isomer, unassigned) [Compound 3B, 3-(7-((6-(2-chloro-3-fluorophenyl)-5-(ethoxycarbonyl)-2-(thiazol-2-yl)-3,6-dihydropyrimidin-4-yl)methyl)-3-thioxohexahydroimidazo[1,5-a]pyrazin-2(3H)-yl)-2,2-dimethylpropanoic acid] as the compound, how does the EC50 (HBV) read?
The EC50 was 0.0017 µM.

And the CC50 (HepG2.2.15 cells)?
The CC50 was 17.8 µM.

And the half-life at 1 uM [1]?
Its half-life at 1 uM is 2.91 h.

And the CLint scaled at 1 uM [1]?
The CLint scaled at 1 uM was 10.1 mL/min/kg.

What about the “metabolic stability in human hepatocyte cells, in words” value (human hepatocytes) of the same compound?
The value was “improved metabolic stability”.

What about the Kp ([3]; male, C57BL/6, mouse, mice, PO, read-out: AUCInf Ratio (Liver/Plasma)) of the same compound?
The Kp was 19.9.

And the Kp ([3]; male, C57BL/6, mouse, mice, PO, read-out: Cmax Ratio (Liver/Plasma))?
The Kp was 15.3.

And the clearance ([3]; male, C57BL/6, mouse, mice plasma, IV, nominal 2 mg/kg, read-out: IV Cl)?
The clearance was 20.2 mL/min/kg.

And the Cmax ([3]; male, C57BL/6, mouse, mice plasma, PO, dose per compound in table (5.28-9.95 mg/kg))?
The Cmax was 2340 ng/mL.

What about the “Liver AUCinf/Dose” value ([3]; mice liver, PO) of the same compound?
Its value is 20884 ng·kg·h/g/mg.

And the “Liver Cmax/Dose” value ([3]; mice liver, PO)?
Its value is 6624 kg·ng/mg/mL.

What about the “dose-normalized Cmax and dose-normalized AUCinf in liver, in words” value ([3]; mice liver, comparing with reference 1 and reference 2) of the same compound?
The value was “far increased”.

What about the “IV AUCinf/Dose” value ([3]; mice plasma, IV, nominal 2 mg/kg) of the same compound?
The value was 830.9 ng·kg·h/mg/mL.

And the “PO AUCinf/Dose” value ([3]; mice plasma, PO)?
Its value is 1049.3 ng·kg·h/mg/mL.

And the “clearance, in words” value ([3]; mice plasma, comparing with reference 1 and reference 2)?
The value was “far slower clearance”.

And the F ([3]; mice, PO vs IV)?
The F was 126%.

And the “bioavailability in plasma, in words” value ([3]; mice, comparing with reference 1 and reference 2)?
Its value is “increased bioavailability”.

What about the clearance [2] of the same compound?
Its clearance is 23.4 mL/min/kg.

What about the Cmax [2] of the same compound?
Its Cmax is 1180 ng/mL.

And the “IV AUCinf/Dose” value [2]?
Its value is 771.6 ng·kg·h/mg/mL.

And the “PO AUCinf/Dose” value [2]?
Its value is 389.2 ng·kg·h/mg/mL.

What about the “clearance, in words” value [2] of the same compound?
The value was “far slower clearance”.

What about the “dose-normalized AUC (AUCinf/Dose), in words” value [2] of the same compound?
The value was “over two-folds higher”.

What about the F [2] of the same compound?
The F was 50.3%.

And the “bioavailability (F (%)), in words” value [2]?
The value was “increased (or equal) bioavailability”.
